Test results reported in PMC3433414, “Oral Administration of the Pimelic Diphenylamide HDAC Inhibitor HDACi 4b Is Unsuitable for Chronic Inhibition of HDAC Activity in the CNS In Vivo” (PLoS ONE, 2012).
Where two headings read alike, the source gives them in different places.

Columns and labels:
GABA (non‐selective) = assay: Cerep binding, agonist radioligand; settings: 10 μM
From the text: (§1) In addition to the HDAC profiling performed, we also queried 4b for any apparent potential off-target effects, which could complicate any finding of efficacy or adverse events in vivo due to ‘polypharmacy’. This was accomplished by screening against a ‘diversity panel’ of 72 binding and 29 enzyme assays, comprised of roughly equal numbers of selective central and peripheral therapeutically relevant targets (Cerep Diversity Profile). This panel included representative targets from diverse enzyme families, G protein coupled receptors, steroid nuclear receptors, voltage- and ligand-gated ion channels. While not totally inclusive, it is a useful tool for discovery compounds to assess their viability as proof of concept molecules to specifically query a particular target. 4b was initially screened at 10 µM in duplicate. The full set of results is provided as Table S1. […] This clean in vitro profile was considered acceptable to proceed to ADME and pharmacokinetic studies.

PPAR (h) = target: T1, PPAR (h) (Homo sapiens, UniProt P37231); assay: Cerep binding, agonist radioligand; settings: read-out: % inhibition of control specific binding
T1 construct: purchased Cerep (Diversity Profile)
From the text: as §1

AT2 (h) = target: T2, AT2 (h) (Homo sapiens, UniProt P50052); assay: Cerep binding, agonist radioligand; settings: read-out: % inhibition of control specific binding
T2 construct: purchased Cerep (Diversity Profile)
From the text: as §1

V1a (h) = target: T3, V1a (h) (Homo sapiens, UniProt P37288); assay: Cerep binding, agonist radioligand; settings: read-out: % inhibition of control specific binding
T3 construct: purchased Cerep (Diversity Profile)
From the text: as §1

NK1 (h) = target: T4, NK1 (h) (Homo sapiens, UniProt P25103); assay: Cerep binding, agonist radioligand; settings: read-out: % inhibition of control specific binding
T4 construct: purchased Cerep (Diversity Profile)
From the text: as §1

A3 (h) = target: T5, A3 (h) (Homo sapiens, UniProt P0DMS8); assay: Cerep binding, agonist radioligand; settings: read-out: % inhibition of control specific binding
T5 construct: purchased Cerep (Diversity Profile)
From the text: as §1

H3 (h) = target: T6, H3 (h) (Homo sapiens, UniProt Q9Y5N1); assay: Cerep binding, agonist radioligand; settings: read-out: % inhibition of control specific binding
T6 construct: purchased Cerep (Diversity Profile)
From the text: as §1

CB1 (h) = target: T7, CB1 (h) (Homo sapiens, UniProt P21554); assay: Cerep binding, agonist radioligand; settings: read-out: % inhibition of control specific binding
T7 construct: purchased Cerep (Diversity Profile)
From the text: as §1

EP2 (h) = target: T8, EP2 (h) (Homo sapiens, UniProt P43116); assay: Cerep binding, agonist radioligand; settings: read-out: % inhibition of control specific binding
T8 construct: purchased Cerep (Diversity Profile)
From the text: as §1

TRH1 (h) = target: T9, TRH1 (h) (Homo sapiens, UniProt P34981); assay: Cerep binding, agonist radioligand; settings: read-out: % inhibition of control specific binding
T9 construct: purchased Cerep (Diversity Profile)
From the text: as §1

A2A (h) = target: T10, A2A (h) (Homo sapiens, UniProt P29274); assay: Cerep binding, agonist radioligand; settings: read-out: % inhibition of control specific binding
T10 construct: purchased Cerep (Diversity Profile)
From the text: as §1

NK2 (h) = target: T11, NK2 (h) (Homo sapiens, UniProt P21452); assay: Cerep binding, agonist radioligand; settings: read-out: % inhibition of control specific binding
T11 construct: purchased Cerep (Diversity Profile)
From the text: as §1

2 (h) = target: T12, 2 (h) (Homo sapiens, UniProt P07550); assay: Cerep binding, agonist radioligand; settings: read-out: % inhibition of control specific binding
T12 construct: purchased Cerep (Diversity Profile)
From the text: as §1

CysLT1 (LTD4) (h) = target: T13, CysLT1 (LTD4) (h) (Homo sapiens, UniProt Q9Y271); assay: Cerep binding, agonist radioligand; settings: read-out: % inhibition of control specific binding
T13 construct: purchased Cerep (Diversity Profile)
From the text: as §1

BLT1 (LTB4) (h) = target: T14, BLT1 (LTB4) (h) (Homo sapiens, UniProt Q15722); assay: Cerep binding, agonist radioligand; settings: read-out: % inhibition of control specific binding
T14 construct: purchased Cerep (Diversity Profile)
From the text: as §1

CB2 (h) = target: T15, CB2 (h) (Homo sapiens, UniProt P34972); assay: Cerep binding, agonist radioligand; settings: read-out: % inhibition of control specific binding
T15 construct: purchased Cerep (Diversity Profile)
From the text: as §1

CCK2 (CCKB) (h) = target: T16, CCK2 (CCKB) (h) (Homo sapiens, UniProt P32239); assay: Cerep binding, agonist radioligand; settings: read-out: % inhibition of control specific binding
T16 construct: purchased Cerep (Diversity Profile)
From the text: as §1

V2 (h) = target: T17, V2 (h) (Homo sapiens, UniProt P30518); assay: Cerep binding, agonist radioligand; settings: read-out: % inhibition of control specific binding
T17 construct: purchased Cerep (Diversity Profile)
From the text: as §1

MC4 (h) = target: T18, MC4 (h) (Homo sapiens, UniProt P32245); assay: Cerep binding, agonist radioligand; settings: read-out: % inhibition of control specific binding
T18 construct: purchased Cerep (Diversity Profile)
From the text: as §1

PR (h) = target: T19, PR (h) (Homo sapiens, UniProt P06401); assay: Cerep binding, agonist radioligand; settings: read-out: % inhibition of control specific binding
T19 construct: purchased Cerep (Diversity Profile)
From the text: as §1

[1] = target: T20, norepinephrine transporter (h) (Homo sapiens, UniProt P23975); assay: Cerep binding, antagonist radioligand; settings: read-out: % inhibition of control specific binding
T20 construct: purchased Cerep (Diversity Profile)
From the text: as §1

D2S (h) = target: T21, D2S (h) (Homo sapiens, UniProt P14416); assay: Cerep binding, antagonist radioligand; settings: read-out: % inhibition of control specific binding
T21 construct: purchased Cerep (Diversity Profile)
From the text: as §1

[2] = Cerep binding, antagonist radioligand; settings: 10 μM
From the text: as §1

NK3 (h) = target: T22, NK3 (h) (Homo sapiens, UniProt P29371); assay: Cerep binding, antagonist radioligand; settings: read-out: % inhibition of control specific binding
T22 construct: purchased Cerep (Diversity Profile)
From the text: as §1

[3] = target: T23, choline transporter (CHT1) (h) (Homo sapiens, UniProt Q9GZV3); assay: Cerep binding, antagonist radioligand; settings: read-out: % inhibition of control specific binding
T23 construct: purchased Cerep (Diversity Profile)
From the text: as §1

[4] = test system: Ca2+ channel (L, verapamil site) (phenylalkylamine); assay: Cerep binding, antagonist radioligand; settings: 10 μM
From the text: as §1

dopamine transporter (h) = target: T24, dopamine transporter (h) (Homo sapiens, UniProt Q01959); assay: Cerep binding, antagonist radioligand; settings: read-out: % inhibition of control specific binding
T24 construct: purchased Cerep (Diversity Profile)
From the text: as §1

D3 (h) = target: T25, D3 (h) (Homo sapiens, UniProt P35462); assay: Cerep binding, antagonist radioligand; settings: read-out: % inhibition of control specific binding
T25 construct: purchased Cerep (Diversity Profile)
From the text: as §1

D4.4 (h) = target: T26, D4.4 (h) (Homo sapiens, UniProt P21917); assay: Cerep binding, antagonist radioligand; settings: read-out: % inhibition of control specific binding
T26 construct: purchased Cerep (Diversity Profile)
From the text: as §1

H1 (h) = target: T27, H1 (h) (Homo sapiens, UniProt P35367); assay: Cerep binding, antagonist radioligand; settings: read-out: % inhibition of control specific binding
T27 construct: purchased Cerep (Diversity Profile)
From the text: as §1

5‐HT transporter (h) = target: T28, 5‐HT transporter (h) (Homo sapiens, UniProt P31645); assay: Cerep binding, antagonist radioligand; settings: read-out: % inhibition of control specific binding
T28 construct: purchased Cerep (Diversity Profile)
From the text: as §1

A1 (h) = target: T29, A1 (h) (Homo sapiens, UniProt P30542); assay: Cerep binding, antagonist radioligand; settings: read-out: % inhibition of control specific binding
T29 construct: purchased Cerep (Diversity Profile)
From the text: as §1

Cl‐channel (GABA‐gated) = assay: Cerep binding, antagonist radioligand; settings: 10 μM
From the text: as §1

ER (non‐selective) (h) = assay: Cerep binding, agonist radioligand; set-up: species or system human; settings: 10 μM
From the text: as §1

T19 sequence (P06401 whole entry): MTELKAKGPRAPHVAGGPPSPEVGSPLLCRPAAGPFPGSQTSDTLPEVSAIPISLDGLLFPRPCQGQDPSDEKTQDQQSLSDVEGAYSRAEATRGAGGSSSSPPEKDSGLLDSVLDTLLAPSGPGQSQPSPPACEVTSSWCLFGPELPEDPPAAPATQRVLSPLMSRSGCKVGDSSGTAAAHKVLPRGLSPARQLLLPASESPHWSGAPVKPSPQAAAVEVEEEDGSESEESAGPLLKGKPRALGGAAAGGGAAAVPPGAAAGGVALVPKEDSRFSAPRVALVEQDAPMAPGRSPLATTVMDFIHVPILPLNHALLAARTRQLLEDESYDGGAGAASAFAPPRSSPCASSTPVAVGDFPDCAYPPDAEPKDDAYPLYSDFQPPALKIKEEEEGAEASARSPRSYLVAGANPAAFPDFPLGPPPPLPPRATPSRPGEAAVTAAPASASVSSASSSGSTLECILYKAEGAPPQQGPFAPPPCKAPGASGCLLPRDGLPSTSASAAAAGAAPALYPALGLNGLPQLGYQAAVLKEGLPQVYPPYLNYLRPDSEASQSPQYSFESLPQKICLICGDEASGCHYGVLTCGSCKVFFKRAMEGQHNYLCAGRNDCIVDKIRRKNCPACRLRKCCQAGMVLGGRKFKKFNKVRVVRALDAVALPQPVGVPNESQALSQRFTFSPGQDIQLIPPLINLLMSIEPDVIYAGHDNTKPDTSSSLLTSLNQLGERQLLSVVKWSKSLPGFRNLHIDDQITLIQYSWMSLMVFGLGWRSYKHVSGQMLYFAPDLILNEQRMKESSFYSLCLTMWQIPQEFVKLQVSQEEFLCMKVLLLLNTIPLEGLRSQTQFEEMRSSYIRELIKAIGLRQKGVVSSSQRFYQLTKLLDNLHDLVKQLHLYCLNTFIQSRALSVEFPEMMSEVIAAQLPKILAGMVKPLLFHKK
T10 sequence (P29274 whole entry): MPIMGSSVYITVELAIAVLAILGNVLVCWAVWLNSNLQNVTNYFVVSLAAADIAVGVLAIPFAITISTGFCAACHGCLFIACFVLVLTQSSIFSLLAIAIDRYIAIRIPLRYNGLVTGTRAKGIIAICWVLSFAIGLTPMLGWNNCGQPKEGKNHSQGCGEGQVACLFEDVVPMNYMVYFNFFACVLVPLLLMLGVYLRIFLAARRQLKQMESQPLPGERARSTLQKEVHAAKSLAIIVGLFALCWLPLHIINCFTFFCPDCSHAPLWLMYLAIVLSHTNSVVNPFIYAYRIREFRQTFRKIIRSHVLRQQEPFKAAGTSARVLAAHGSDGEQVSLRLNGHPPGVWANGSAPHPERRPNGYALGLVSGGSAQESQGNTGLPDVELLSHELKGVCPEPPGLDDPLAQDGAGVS
T3 sequence (P37288 whole entry): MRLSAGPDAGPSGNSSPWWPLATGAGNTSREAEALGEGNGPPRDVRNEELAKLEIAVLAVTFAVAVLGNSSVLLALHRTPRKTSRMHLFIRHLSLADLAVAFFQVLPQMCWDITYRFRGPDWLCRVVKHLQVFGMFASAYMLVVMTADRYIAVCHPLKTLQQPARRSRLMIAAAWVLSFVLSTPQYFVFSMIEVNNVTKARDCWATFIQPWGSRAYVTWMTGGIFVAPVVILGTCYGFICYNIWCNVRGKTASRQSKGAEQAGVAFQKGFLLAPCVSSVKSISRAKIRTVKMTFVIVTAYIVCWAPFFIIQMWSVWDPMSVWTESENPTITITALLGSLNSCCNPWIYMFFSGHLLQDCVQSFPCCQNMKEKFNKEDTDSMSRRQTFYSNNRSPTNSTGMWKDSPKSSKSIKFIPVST
T6 sequence (Q9Y5N1 whole entry): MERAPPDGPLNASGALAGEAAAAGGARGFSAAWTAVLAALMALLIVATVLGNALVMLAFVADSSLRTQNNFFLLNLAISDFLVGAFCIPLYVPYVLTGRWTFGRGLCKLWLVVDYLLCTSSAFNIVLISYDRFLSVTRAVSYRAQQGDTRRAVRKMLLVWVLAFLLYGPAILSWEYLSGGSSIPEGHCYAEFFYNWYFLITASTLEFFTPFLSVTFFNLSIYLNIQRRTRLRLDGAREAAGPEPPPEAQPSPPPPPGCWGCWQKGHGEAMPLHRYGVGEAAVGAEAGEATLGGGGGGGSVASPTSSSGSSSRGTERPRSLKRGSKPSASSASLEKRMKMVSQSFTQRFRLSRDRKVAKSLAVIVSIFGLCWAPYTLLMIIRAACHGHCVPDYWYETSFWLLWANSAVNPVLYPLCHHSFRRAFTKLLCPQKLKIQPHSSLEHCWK
T22 sequence (P29371 whole entry): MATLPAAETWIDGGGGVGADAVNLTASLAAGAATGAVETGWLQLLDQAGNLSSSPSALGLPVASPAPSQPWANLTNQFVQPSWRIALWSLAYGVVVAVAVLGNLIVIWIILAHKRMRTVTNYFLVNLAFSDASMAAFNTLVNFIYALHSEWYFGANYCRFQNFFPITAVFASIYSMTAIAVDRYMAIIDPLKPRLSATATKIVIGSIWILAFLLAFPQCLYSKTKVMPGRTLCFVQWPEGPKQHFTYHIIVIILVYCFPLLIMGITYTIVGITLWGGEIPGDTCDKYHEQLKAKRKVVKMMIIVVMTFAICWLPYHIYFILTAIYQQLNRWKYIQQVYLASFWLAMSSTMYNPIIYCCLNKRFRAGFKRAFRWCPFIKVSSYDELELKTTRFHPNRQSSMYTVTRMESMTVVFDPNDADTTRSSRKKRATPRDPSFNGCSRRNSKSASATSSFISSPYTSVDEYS
T15 sequence (P34972 whole entry): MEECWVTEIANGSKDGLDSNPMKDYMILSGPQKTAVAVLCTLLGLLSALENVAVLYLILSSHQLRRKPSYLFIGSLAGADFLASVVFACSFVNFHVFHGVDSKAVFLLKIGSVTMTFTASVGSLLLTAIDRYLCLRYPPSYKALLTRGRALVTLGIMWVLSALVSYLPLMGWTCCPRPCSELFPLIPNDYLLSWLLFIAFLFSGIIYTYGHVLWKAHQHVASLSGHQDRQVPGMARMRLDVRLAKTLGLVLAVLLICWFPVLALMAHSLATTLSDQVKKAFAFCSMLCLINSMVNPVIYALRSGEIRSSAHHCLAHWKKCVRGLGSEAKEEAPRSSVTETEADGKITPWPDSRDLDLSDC
T20 sequence (P23975 whole entry): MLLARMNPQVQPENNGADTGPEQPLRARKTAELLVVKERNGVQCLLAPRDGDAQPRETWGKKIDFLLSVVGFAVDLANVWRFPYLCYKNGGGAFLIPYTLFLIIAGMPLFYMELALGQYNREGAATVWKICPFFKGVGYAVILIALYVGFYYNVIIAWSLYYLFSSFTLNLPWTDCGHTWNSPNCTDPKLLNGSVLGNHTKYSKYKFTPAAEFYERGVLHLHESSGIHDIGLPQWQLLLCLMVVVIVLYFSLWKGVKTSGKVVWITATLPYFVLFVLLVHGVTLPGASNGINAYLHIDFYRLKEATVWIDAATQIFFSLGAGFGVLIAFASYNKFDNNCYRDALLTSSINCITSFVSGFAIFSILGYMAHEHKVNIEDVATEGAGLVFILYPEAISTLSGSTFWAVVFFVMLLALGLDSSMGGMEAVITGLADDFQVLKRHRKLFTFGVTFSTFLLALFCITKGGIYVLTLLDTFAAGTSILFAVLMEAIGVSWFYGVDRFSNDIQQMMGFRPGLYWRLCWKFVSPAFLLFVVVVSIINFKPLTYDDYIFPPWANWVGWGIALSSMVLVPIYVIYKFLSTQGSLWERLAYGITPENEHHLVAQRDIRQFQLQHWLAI
T25 sequence (P35462 whole entry): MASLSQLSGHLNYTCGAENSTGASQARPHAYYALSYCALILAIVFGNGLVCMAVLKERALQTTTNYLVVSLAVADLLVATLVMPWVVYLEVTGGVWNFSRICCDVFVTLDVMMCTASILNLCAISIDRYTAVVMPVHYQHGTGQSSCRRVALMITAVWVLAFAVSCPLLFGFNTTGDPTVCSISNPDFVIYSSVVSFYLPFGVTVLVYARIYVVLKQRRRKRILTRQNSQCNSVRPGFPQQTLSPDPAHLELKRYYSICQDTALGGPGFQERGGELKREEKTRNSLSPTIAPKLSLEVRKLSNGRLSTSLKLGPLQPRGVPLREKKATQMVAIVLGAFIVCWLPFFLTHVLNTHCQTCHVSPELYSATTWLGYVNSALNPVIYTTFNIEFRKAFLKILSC
T1 sequence (P37231 whole entry): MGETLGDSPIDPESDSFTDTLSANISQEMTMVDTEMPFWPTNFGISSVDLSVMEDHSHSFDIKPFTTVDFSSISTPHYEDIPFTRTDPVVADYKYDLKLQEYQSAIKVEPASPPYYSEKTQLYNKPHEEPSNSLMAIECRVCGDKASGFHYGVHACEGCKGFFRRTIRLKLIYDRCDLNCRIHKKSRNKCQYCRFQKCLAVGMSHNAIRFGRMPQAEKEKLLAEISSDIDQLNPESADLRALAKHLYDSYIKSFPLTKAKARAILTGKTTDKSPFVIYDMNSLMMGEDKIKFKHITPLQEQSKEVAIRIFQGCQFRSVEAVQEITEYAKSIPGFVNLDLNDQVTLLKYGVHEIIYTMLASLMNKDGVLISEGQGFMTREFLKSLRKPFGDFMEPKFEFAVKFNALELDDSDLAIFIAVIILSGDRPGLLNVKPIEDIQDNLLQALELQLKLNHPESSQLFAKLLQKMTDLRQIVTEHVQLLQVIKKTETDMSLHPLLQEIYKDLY
T18 sequence (P32245 whole entry): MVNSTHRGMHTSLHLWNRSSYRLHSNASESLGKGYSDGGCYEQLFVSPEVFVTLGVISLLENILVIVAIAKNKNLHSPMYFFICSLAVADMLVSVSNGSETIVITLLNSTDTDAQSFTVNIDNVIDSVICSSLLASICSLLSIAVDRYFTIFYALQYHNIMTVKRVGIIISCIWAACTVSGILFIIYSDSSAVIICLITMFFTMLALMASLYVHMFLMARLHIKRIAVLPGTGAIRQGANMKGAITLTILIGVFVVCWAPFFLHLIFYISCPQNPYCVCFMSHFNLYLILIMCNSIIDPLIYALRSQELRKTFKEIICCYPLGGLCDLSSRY

## O=C(CCCCCc1nc2ccccc2[nH]1)Nc1ccccc1 [Compound C1, 6-(1-H-benzo[d]imidazol-2-yl)-N-phenylhexanamide]
GABA (non‐selective)
  % inhibition of control specific binding: 5%
PPAR (h); 10 μM
  inhibition at 10 µM: 13%
AT2 (h); 10 μM
  inhibition at 10 µM: 12%
V1a (h); 10 μM
  inhibition at 10 µM: 11%
NK1 (h); 10 μM
  inhibition at 10 µM: 9%
A3 (h); 10 μM
  inhibition at 10 µM: 11%
H3 (h); 10 μM
  inhibition at 10 µM: 8%
CB1 (h); 10 μM
  inhibition at 10 µM: 18%
EP2 (h); 10 μM
  inhibition at 10 µM: 24%
TRH1 (h); 10 μM
  inhibition at 10 µM: 1%
A2A (h); 10 μM
  inhibition at 10 µM: 9%
NK2 (h); 10 μM
  inhibition at 10 µM: 9%
2 (h); 10 μM
  inhibition at 10 µM: 2%
CysLT1 (LTD4) (h); 10 μM
  inhibition at 10 µM: 0%
BLT1 (LTB4) (h); 10 μM
  inhibition at 10 µM: 0%
CB2 (h); 10 μM
  inhibition at 10 µM: 3%
CCK2 (CCKB) (h); 10 μM
  inhibition at 10 µM: 3%
V2 (h); 10 μM
  inhibition at 10 µM: 5%
MC4 (h); 10 μM
  inhibition at 10 µM: 0%
PR (h); 10 μM
  inhibition at 10 µM: 1%
[1]; 10 μM
  inhibition at 10 µM: 30%
D2S (h); 10 μM
  inhibition at 10 µM: 2%
[2]
  % inhibition of control specific binding: 13%
NK3 (h); 10 μM
  inhibition at 10 µM: 4%
[3]; 10 μM
  inhibition at 10 µM: 40%
[4]
  % inhibition of control specific binding: 19%
Dopamine transporter (h); 10 μM
  inhibition at 10 µM: 23%
D3 (h); 10 μM
  inhibition at 10 µM: 11%
D4.4 (h); 10 μM
  inhibition at 10 µM: 31%
H1 (h); 10 μM
  inhibition at 10 µM: 45%
5‐HT transporter (h); 10 μM
  inhibition at 10 µM: 5%
A1 (h); 10 μM
  inhibition at 10 µM: 9%
Cl‐channel (GABA‐gated)
  % inhibition of control specific binding: 0%
ER (non‐selective) (h)
  % inhibition of control specific binding: 4%

## Nc1ccccc1NC(=O)CCCCCC(=O)Nc1ccccc1 [Compound 4b]
GABA (non‐selective)
  % inhibition of control specific binding: 14%
PPAR (h)
  inhibition at 10 µM: 13%
AT2 (h)
  inhibition at 10 µM: 4%
V1a (h)
  inhibition at 10 µM: 10%
NK1 (h)
  inhibition at 10 µM: 7%
A3 (h)
  inhibition at 10 µM: 8%
H3 (h)
  inhibition at 10 µM: 0%
CB1 (h)
  inhibition at 10 µM: 7%
EP2 (h)
  inhibition at 10 µM: 15%
TRH1 (h)
  inhibition at 10 µM: 9%
A2A (h)
  inhibition at 10 µM: 0%
NK2 (h)
  inhibition at 10 µM: 5%
2 (h)
  inhibition at 10 µM: 2%
CysLT1 (LTD4) (h)
  inhibition at 10 µM: 0%
BLT1 (LTB4) (h)
  inhibition at 10 µM: 2%
CB2 (h)
  inhibition at 10 µM: 0%
CCK2 (CCKB) (h)
  inhibition at 10 µM: 0%
V2 (h)
  inhibition at 10 µM: 6%
MC4 (h)
  inhibition at 10 µM: 1%
PR (h)
  inhibition at 10 µM: 0%
[1]
  inhibition at 10 µM: 0%
D2S (h)
  inhibition at 10 µM: 3%
[2]
  % inhibition of control specific binding: 0%
NK3 (h)
  inhibition at 10 µM: 0%
[3]
  inhibition at 10 µM: 14%
[4]
  % inhibition of control specific binding: 7%
Dopamine transporter (h)
  inhibition at 10 µM: 2%
D3 (h)
  inhibition at 10 µM: 10%
D4.4 (h)
  inhibition at 10 µM: 13%
H1 (h)
  inhibition at 10 µM: 10%
5‐HT transporter (h)
  inhibition at 10 µM: 5%
A1 (h)
  inhibition at 10 µM: 7%
Cl‐channel (GABA‐gated)
  % inhibition of control specific binding: 0%
ER (non‐selective) (h)
  % inhibition of control specific binding: 2%
